Measurements: patent EP4729530A1, “NOVEL PEPTIDE AND USE THEREOF” (Gemvax & Kael Co., Ltd., priority 2023, dated 2024)

How the values were obtained:
[1] = Stability in human plasma (LC-MS, residual peptide); format: in vitro ADME; details: 37 °C, read-out: percentage of residual peptide relative to the peptide amount before reaction
Description: The peptide was added to human plasma and diluted to a concentration of 5 µM, followed by incubation at 37 °C for 10, 60, and 240 minutes with stirring. The reaction mixture was collected and pretreated by plasma protein precipitation using methanol containing 0.1% formic acid. The resulting supernatants were collected and analyzed by LC-MS under the conditions shown in Table 1 below to determine the percentage of residual peptide relative to the initial peptide amount.

4R Tau^P301L-BiFC mouse = experiment: Novel object recognition experiment in 4R tauopathy mouse model; format: in vivo; details: GV2002 2 mg/kg subcutaneous, 3 times/week, 21 weeks
Description: (§1) In vivo experiments were performed on the 4R tauopathy mouse groups shown in FIG. 4 according to the schedule shown in FIG. 5 and the outline in Table 3 below.
Novel object recognition experiments were conducted on a 4R tauopathy mouse model administered GV2002 for five months, from 7.5 to 12.5 months of age, to evaluate the efficacy of GV2002 in alleviating impairment in cognitive ability.
Mice that underwent the experiment from days 1 to 6 according to the experimental method in Example 4-2 were subjected to a novel object recognition experiment on days 7 and 8. […] On day 8, one of the two objects was replaced with a novel object, and mice were placed in the enclosure and observed for 10 minutes, during which the time spent exploring the novel object was measured. Prior to the experiments on days 7 and 8, mice were allowed one hour to acclimate to the testing environment. The illumination level was maintained at a constant level throughout the experiment. The recorded data were analyzed using two-way ANOVA with Sidak's multiple comparisons test.

tau oligomer formation = experiment: Brain Tau-BiFC imaging for tau oligomer formation; format: in vivo, mouse; details: GV2002 2 mg/kg subcutaneous, 3 times/week, 21 weeks
Description: as §1
Brains from a 4R tauopathy mouse model administered GV2002 for five months, from 7.5 to 12.5 months of age, were removed and analyzed using lipid staining.
Brain tissue sampling was performed in the same manner as in Example 4-5.
To remove autofluorescence from brain tissues through lipid staining, a 0.05% Sudan Black B solution in 70% ethanol was stirred overnight and then filtered through a 0.22-µm filter. 30-µm-thick frozen brain sections from each region were immersed in deionized water and washed three times for 5 minutes each. The brain tissue was then immersed in the prepared 0.05% Sudan Black B solution for 10 minutes to perform staining. The brain tissue stained with Sudan Black B was immersed in 0.1% PBS-T solution and washed at 30-second intervals to adjust the staining intensity and then washed three times with deionized water for 5 minutes each. Nuclear staining was performed by immersing the brain tissue in a 0.2-µg/mL Hoechst solution in deionized water for 20 minutes. The tissue was then washed three times with deionized water for 5 minutes each. Tau-BiFC imaging was performed using a slide scanner.
To obtain fluorescence images of the stained brain tissue, brain tissue slides were scanned using a Zeiss Axio Scan. Tau-BiFC fluorescence levels in each brain region obtained through fluorescence imaging, i.e., the somatosensory cortex, hippocampus (CA1), motor cortex, and substantia nigra, were calculated using ImageJ software. The calculated values were analyzed using one-way ANOVA with Dunnett's multiple comparisons test.

[2] = tested on: total tau (Tau5) and phosphorylated tau (pS199, pS396); experiment: Brain lysate analysis by tau immunoblot (soluble and insoluble fractions); format: in vivo, mouse; details: GV2002 2 mg/kg subcutaneous, 3 times/week, 21 weeks
Description: as §1
Brain lysates from a 4R tauopathy mouse model administered GV2002 for five months, from 7.5 to 12.5 months of age, were obtained. Soluble and insoluble fraction samples were subjected to immunoblotting using antibodies against total tau (Tau5) and phosphorylated tau (pS199, pS396), and the levels of total and phosphorylated tau were quantitatively analyzed.
Mouse models were anesthetized, saline was intracardially perfused, and blood was removed using a perfusion pump device. The brain was then removed and weighed. 1 mL of RIPA buffer (containing protease and phosphatase inhibitor cocktails) was added to the extracted brain and homogenized.
The homogenized brain lysates were transferred to EP tubes and incubated on an orbital shaker at 4°C for 2 hours. After centrifugation at 13,000 rpm for 20 minutes at 4°C, the supernatant (soluble fraction) was collected in a new EP tube and stored at -80°C.
To prepare samples for immunoblotting, the concentrations of the fractionated samples were quantified using the Bradford protein quantification assay. RIPA buffer and 4X SDS Laemmli sample buffer (containing 2.5% β-mercaptoethanol for reducing conditions) were added to each sample to adjust the final protein concentration to 2 mg/mL. The samples were then boiled at 97°C for 5 minutes.
Meanwhile, to obtain the insoluble fraction, the remaining pellet after supernatant removal was resuspended in RIPA buffer containing 1 M sucrose (1 mL) and DNase I (1 mg/mL). […]
20 µg of each brain lysate sample of soluble and insoluble fractions were loaded onto a 10% SDS-PAGE gel (SDS-PAGE running buffer: 1X Tris/Glycine/SDS buffer in 3' D.W.), and electrophoresis was performed at 80 V for 30 minutes followed by 90 V for 1 hour. […] Protein bands of the membrane were detected using ChemiDoc with ECL solution, which is HRP substrate, and band intensities were quantified using ImageJ software (NIH).

[3] = soluble fraction of brain lysate

remaining at 1 h, 5 µM ([1]; 60 minutes): 57.2% | remaining at 4 h, 5 µM ([1]; 240 minutes): 46.5%
Substance: Ac-EARPALLTSRLRFIPK-NH2 [GV2002]
time spent exploring the novel object compared to the time spent exploring the learned object (4R Tau^P301L-BiFC mouse): significant increase | Tau-BiFC fluorescence intensity, reduction compared to the vehicle-administered group (tau oligomer formation; hippocampus region): 63% | Tau-BiFC fluorescence intensity, reduction compared to the vehicle-administered group (tau oligomer formation; motor cortex region): 56% | Tau-BiFC fluorescence intensity, reduction compared to the vehicle-administered group (tau oligomer formation; somatosensory cortex region): 58% | Tau-BiFC fluorescence intensity, reduction compared to the vehicle-administered group (tau oligomer formation; substantia nigra region): 56% | level of insoluble tau, reduced to (compared to the vehicle-administered group) ([2]; insoluble fraction of brain lysate, total tau (Tau5)): 57% | phosphorylated tau pS199, reduced to (compared to the vehicle-administered group) [2, 3]: 66% | phosphorylated tau pS396, reduced to (compared to the vehicle-administered group) [2, 3]: 56%
